According to patent US20250270512A1, “ADDITIVE FOR UNDIFFERENTIATION MAINTAINING MEDIUM” (AJINOMOTO CO., INC., priority 2017, published 2025):
“Also recorded” adds a separate entry of the source.

Tests used:
Assay type in all cases: cell-based
[1] = test system: human induced pluripotent stem cells 201B7; test: Proliferation promoting effect of L-tryptophan metabolites in mTeSR1, cell coating rate by IncuCyte, 201B7; conditions: mTeSR1 medium, final 50, 100, 200, 500, 1000 μM, 0-120 hr
Procedure: L-kynurenine (Sigma-Aldrich Co. LLC: […]) was added at a final concentration of 50, 100, 200, 500, 1000 μM to mTeSR1 medium and the proliferation promoting effect was examined using the prepared medium. Y-27632 was added at a final concentration of 10 μM for 2 days after seeding. As a basement membrane matrix, Matrigel (Japan Becton, Dickinson and Company) was applied on a 6 well plate and 20,000 cells were single cell seeded per well. Two days after the cell seeding, evaluation was performed using the medium free of Y-27632 and prepared as mentioned above. The time of L-kynurenine addition was taken as 0 and the cell coating rate was measured using IncuCyte at 0, 24, 48, 72, 96 and 120 hr later. […] Kynurenic acid (Sigma-Aldrich Co. LLC: […]) was added at a final concentration of 50, 100, 200, 500, 1000 μM to mTeSR1 medium and the proliferation promoting effect was examined using the prepared medium. Y-27632 was added at a final concentration of 10 μM for 2 days after seeding. As a basement membrane matrix, Matrigel (Japan Becton, Dickinson and Company) was applied on a 6 well plate and 20,000 cells were single cell seeded per well. […] The time of kynurenic acid addition was taken as 0 and the cell coating rate was measured using IncuCyte at 0, 24, 48, 72, 96 and 120 hr later.

[2] = test system: human embryonic kidney cell line HEK293T cells; test: Proliferation promoting effect of L-tryptophan, cell coating rate by IncuCyte, HEK293T; conditions: 293T; DMEM with 10% fetal bovine serum; final 44-1408 μM; 24-120 hr
Procedure: Next, the proliferation promoting effect of L-tryptophan was evaluated using human embryonic kidney cell line HEK293T cells. As the medium, DMEM medium (Thermo Fisher Scientific K. K.: 11965) added with 10% fetal bovine serum was used and culturing was performed under 5% CO2/37° C. conditions.
L-tryptophan (Sigma-Aldrich Co. LLC: T8941) was added at a given concentration to DMEM medium (Thermo Fisher Scientific K.K.: 11965) added with 10% fetal bovine serum, used for culture and the effect thereof was examined.
L-tryptophan (Sigma-Aldrich Co. LLC: T8941) was added at a final concentration of 44, 176, 352, 704, 1408 μM to DMEM medium (Thermo Fisher Scientific K.K.: 11965) added with 10% fetal bovine serum and the proliferation promoting effect of L-tryptophan was examined using the prepared medium. A 6 well plate was prepared and 10,000 cells were single cell seeded per well. The next day of cell seeding, evaluation was performed by replacing the medium with the medium prepared as mentioned above. The culture period was set to 6 days, the time of L-tryptophan addition was set to 0 and the cell coating rate was measured using IncuCyte at 24, 48, 72, 96 and 120 hr later.

[3] = test system: human induced pluripotent stem cells 201B7; test: Proliferation promoting effect of L-tryptophan, cell coating rate by IncuCyte, 201B7; conditions: final 44-1408 μM, 24-120 hr after addition
Procedure: First, the proliferation promoting effect of L-tryptophan on induced pluripotent stem cells (iPS cells) was evaluated using 3 kinds of commercially available media. As the human iPS cell, 201B7 strain purchased from iPS Academia Japan, Inc. was used and cultured under the conditions of 5% CO2/37° C.
L-tryptophan (Sigma-Aldrich Co. LLC: T8941) was added to the media of Essential-8 (Life Technologies Inc.: A1517001), mTeSR1 (STEM CELL Technologies Inc.: 05850), TeSR2 (STEM CELL Technologies Inc.: 05860) at a given concentration, used for culture and the effect thereof was examined.
(§1) L-tryptophan (Sigma-Aldrich Co. LLC: T8941) was added at a final concentration of 44, 176, 352, 704, 1408 μM to Essential-8, mTeSR1, TeSR2 media and the proliferation promoting effect of L-tryptophan was examined using the prepared media. A 6 well plate coated with Matrigel (Japan Becton, Dickinson and Company) as a basement membrane matrix was prepared and 13,000 cells were single cell seeded per well. The next day of cell seeding, evaluation was performed using the medium prepared as mentioned above. The culture period was set to 6 days, the time of L-tryptophan addition was set to 0 and the cell coating rate was measured using IncuCyte at 24, 48, 72, 96 and 120 hr later. As the medium to be used when seeding, a medium without addition of Y-27632 at a final concentration of 10 μM was used and culturing was performed.

[4] = test system: human induced pluripotent stem cells 253G4; test: Proliferation promoting effect of L-tryptophan, cell coating rate by IncuCyte, 253G4; conditions: mTeSR1 medium, final 44-1408 μM, 24-120 hr
Procedure: (§2) Then, the proliferation promoting effect of L-tryptophan was evaluated using other strain 253G4 of human induced pluripotent stem cell (iPS cell) and human embryonic stem cell H9 strain. As the medium, mTeSR1 (STEM CELL Technologies Inc.: 05850) was used and culturing was performed under 5% CO2/37° C. conditions.
(§3) L-tryptophan (Sigma-Aldrich Co. LLC: T8941) was added to mTeSR1 medium (STEM CELL Technologies Inc.: 05850) at a given concentration, used for culture and the effect thereof was examined.
as §1, with “to mTeSR1 medium” for “to Essential-8, mTeSR1, TeSR2 media”, “prepared medium.” for “prepared media.”, “and 40,000 253G4 cells and 10,000 H9” for “and 13,000”, “performed by replacing the medium with” for “performed using”

[5] = test system: human iPS cell 201B7 strain; test: Expression of undifferentiated marker after addition of high concentration of L-tryptophan; conditions: data not shown
[6] = test system: human embryonic stem cells H9; test: Proliferation promoting effect of L-tryptophan, cell coating rate by IncuCyte, H9; conditions: mTeSR1 medium, final 44-1408 μM, 24-120 hr
Procedure: as §2, §3
as §1, with “to mTeSR1 medium” for “to Essential-8, mTeSR1, TeSR2 media”, “prepared medium.” for “prepared media.”, “and 40,000 253G4 cells and 10,000 H9” for “and 13,000”, “performed by replacing the medium with” for “performed using”

Nc1ccccc1C(=O)C[C@H](N)C(=O)O [L-kynurenine]
cell coating rate (proliferation promoting effect) [1]: showed a cell proliferation promoting effect in the L-kynurenine 50-500 μM addition group

O=C(O)c1cc(=O)c2ccccc2[nH]1 [kynurenic acid]
cell coating rate (proliferation promoting effect) [1]: showed a cell proliferation promoting effect in the kynurenic acid 50-500 μM addition group

NC(Cc1c[nH]c2ccccc12)C(=O)O [L-tryptophan, 2-amino-3-(indolyl)propionic acid]
cell coating rate (proliferation promoting effect) [2]: concentration-dependent proliferation promoting effect of L-tryptophan was not confirmed; also recorded: did not show an L-tryptophan concentration-dependent effect of promoting proliferation | cell coating rate (proliferation promoting effect) ([3]; Essential-8 medium): showed a proliferation promoting effect in an L-tryptophan concentration dependent manner; also recorded: showed an L-tryptophan concentration-dependent effect of promoting proliferation | cell coating rate (proliferation promoting effect) ([3]; TeSR2 medium): showed a proliferation promoting effect in an L-tryptophan concentration dependent manner; also recorded: showed an L-tryptophan concentration-dependent effect of promoting proliferation | cell coating rate (proliferation promoting effect) ([3]; mTeSR1 medium): showed a proliferation promoting effect in an L-tryptophan concentration dependent manner; also recorded: showed an L-tryptophan concentration-dependent effect of promoting proliferation | cell coating rate (proliferation promoting effect) [4]: concentration-dependent proliferation promoting effect of L-tryptophan was also confirmed; also recorded: showed an L-tryptophan concentration-dependent effect of promoting proliferation | expression of undifferentiated marker (OCT, Nanog, alkaline phosphatase) [5]: not influenced | cell coating rate (proliferation promoting effect) [6]: concentration-dependent proliferation promoting effect of L-tryptophan was also confirmed; also recorded: showed an L-tryptophan concentration-dependent effect of promoting proliferation
